In patent EP3360866B1, “[…]” (Alfred E. Tiefenbacher (GmbH & Co. KG), priority 2017, dated 2018):

Legend:
[1] = esterase cleavage / half-life in human blood plasma; type: in vitro ADME; details: for prodrug cleaved (esterase cleavage): within 4 hours
Experimental: (§1) Almost 100 % esterase cleavage was found in rat blood plasma after 1 h, whereas about 70 % of the prodrug was cleaved within 4 hours in human blood plasma.
(§2) The half-life of Benzoyloxy(methoxy)carbonyl-Nphenethyl-Mirabegron in rat blood plasma and in human blood plasma was less than 0.5 h. Almost 100 % esterase cleavage was found in rat blood plasma after 1 h, whereas almost 100 % of the prodrug was cleaved within 4 hours in human blood plasma.

[2] = esterase cleavage / half-life in rat blood plasma; type: in vitro ADME; details: for esterase cleavage: after 1 h
Experimental: as §1, §2

[3] = oral administration to rats, pharmacokinetics compared with Mirabegron; type: in vivo; details: oral administration to Sprague Dawley rats, compared to the parent compound Mirabegron

Question: With `Nc1nc(CC(=O)Nc2ccc(CCN(C[C@H](O)c3ccccc3)C(=O)OCOC(=O)c3ccccc3)cc2)cs1` [Benzoyloxy(methoxy)carbonyl-Nphenethyl-Mirabegron] as the compound, how does the half-life [1] read?
Answer: less than 0.5 h

Question: And the “prodrug cleaved (esterase cleavage)” value [1]?
Answer: ~100%

Question: And the half-life [2]?
Answer: less than 0.5 h

Question: And the esterase cleavage [2]?
Answer: ~100%

Question: For `CC(OC(=O)C(C)C)OC(=O)N(CCc1ccc(NC(=O)Cc2csc(N)n2)cc1)C[C@H](O)c1ccccc1` (stereo partly shown) [Enacarbil-Nphenethyl-Mirabegron], which half-life [1] is on record?
Answer: less than 2.5 h

Question: And the “prodrug cleaved (esterase cleavage)” value [1]?
Answer: about 70%

Question: And the half-life [2]?
Answer: less than 0.5 h

Question: What about the esterase cleavage [2] of the same compound?
Answer: ~100%

Question: And the Cmax [3]?
Answer: higher

Question: And the Tmax [3]?
Answer: earlier
